Test results from article PMC5880945, “D-Arg^0-Bradykinin-Arg-Arg, a Latent Vasoactive Bradykinin B2 Receptor Agonist Metabolically Activated by Carboxypeptidases” (Frontiers in Pharmacology, 2018).
“Also recorded” adds a separate entry of the source. Square brackets hold non-standard residues; d marks the D form. Ends that are not written are not given here.

Key:
[1] = test system: human ACE-mCherry fusion protein; assay: Competition of a fluorogenic ACE substrate by synthetic kinins (recombinant ACE-mCherry); type: biochemical; conditions: enalaprilat 1 μM; 15 min, 37°C; fluorescence
Protocol: The source of enzyme was whole HEK 293a cells grown in 24-well plates and transfected as described with a vector coding for the human ACE-mCherry fusion protein, an active enzyme ([Charest-Morin and Marceau, 2016]). The culture medium was removed from cell wells, which were rinsed twice with PBS. The fluorogenic substrate (final concentration 20 μM), and, optionally, a competitor (BK, r-BK, or r-BK-RR in variable concentrations, or the ACE inhibitor enalaprilat 1 μM) were added in 250 μl PBS in each well; the plates were then incubated for 15 min at 37°C. At this point, the well supernatants were transferred in Eppendorf tubes, centrifuged 30 s at 12500 rpm to remove debris and 100 μl of this fluid transferred in wells of 96-well plate (black background) to read the fluorescence (excitation 320 nm, emission 420 nm) using a TECAN Infinite® 200 PRO microplate reader. Results were expressed as the percent of the fluorescence in wells containing ACE-mCherry and the substrate without competitors. Controls included mock-transfected cells and enalaprilat-treated cells.

[2] = test system: anesthetized rats; assay: In vivo hemodynamics in anesthetized rats pretreated with icatibant or peptidase inhibitors; design: species or system male Sprague-Dawley rats; conditions: for Mean arterial blood pressure, basal after pre-treatment / Heart rate, basal after pre-treatment: 15 min after i.v. pretreatment, mean ± SEM, n = 10 icatibant, 9 enalaprilat, 8 Plummer’s, 10 combination; for Mean arterial blood pressure, basal after pre-treatment: untreated control 93.2 ± 3.3 (n = 13), ANOVA N.S.; for Heart rate, basal after pre-treatment: untreated control 352 ± 10 (n = 13), ANOVA P < 0.001, * icatibant, ** others
Protocol: All surgical and experimental procedures were reviewed and approved by the Animal Care and Handling Committee of Laval University, in accordance with the Canadian Council on Animal Care. Experiments were performed on male Sprague-Dawley rats (300–375 g) purchased from Charles River Laboratories (St-Constant, QC, Canada). The rats were housed in a light-controlled (12:12-h light-dark cycle (lights on at 0600)) and temperature-regulated room (22 ± 1°C). Animals had free access to normal chow diet and tap water. They were allowed to acclimate to their environmental conditions for 1 week prior to being studied. At the end of the acclimation period, the rats were anesthetised with sodium pentobarbital (50 mg kg^-1, i.p., supplemented as required) and had one catheter implanted into the right jugular vein [for intravenous (i.v.) injection] and one into the left femoral artery [for direct and continuous measurement of blood pressure and heart rate as previously described ([Jean et al., 2016])]. Experiments started at least 20 min following the end of surgery in anesthetised rats.
The mechanism subserving the cardiovascular responses to random i.v. injections of r-BK and r-BK-RR at the dose of 1.6 μg/kg, was evaluated in rats pretreated with specific antagonists. In these experiments, the rats were separated in four groups depending on the antagonist tested, and the cardiovascular responses to the peptides agonists were compared with those elicited in the untreated control group of rats. In the first group of treated rats, the long acting and selective B2R antagonist, icatibant (Hoe 140) (D-Arg-[Hyp^3, Thi^5, D-Tic^7, Oic^8]) bradykinin ([Hock et al., 1991]; [Wirth et al., 1991]; [Rhaleb et al., 1992]; [Marceau et al., 1994]) was intravenously administered as bolus (75 μg/kg, 0.1 ml) following a 10 min period of baseline measurements of heart rate and blood pressure. Fifteen minutes later, recording changes in blood pressure and heart rate elicited by i.v. injection of peptide vehicle (saline-BSA 0.1%) followed by random injections of r-BK and r-BK-RR, were made as described above. The next peptide was administered once all recorded cardiovascular parameters had returned to baseline after the previous injection. Further experiments were made in a second group of rats pretreated with the ACE inhibitor, enalaprilat. In these experiments, enalaprilat was intravenously administered as bolus ([…], 0.1 ml) 15 min before the i.v. injections of peptide vehicle and both customized peptides, as above. Further experiments were also carried out in rats pretreated with the Plummer’s inhibitor (mercaptomethyl-3-guanidinoethylthiopropanoic acid) a high affinity inhibitor of arginine carboxypeptidases that is an arginine analog ([Plummer and Ryan, 1981]). The inhibitor was intravenously administered as bolus (0.75 mg/kg, 0.1 ml) followed 15 min later by the i.v. injections of saline-BSA 0.1%, and then r-BK and -r-BK-RR (1.6 μg/kg) in random order. A fourth group of rats was pretreated with a combined i.v. injection of enalaprilat (0.1 mg/kg) and the Plummer’s inhibitor (0.75 mg/kg) 15 min before the randomized i.v. injections of both customized peptides, as above. The doses of different inhibitors were based on preliminary experiments and from previous studies performed by us and others ([Ishida et al., 1989]; [Wirth et al., 1991]; [Muto et al., 2003]; [Jean et al., 2016]). At the end of the experiments the rats were euthanized with an overdose of sodium pentobarbital (240 mg/kg, i.v.).
Results are presented as means ± SEM. Radioligand binding data were fitted by non-linear regression to a one-site competition equation using a least-square method (Prism 5.0, GraphPad Software Inc., San Diego, CA, United States) and IC50 values calculated from this procedure. […]

[3] = test system: ACE (two separate catalytic sites); conditions: ref Araujo et al., 2000; cited from earlier work
Excerpt: The source of enzyme was whole HEK 293a cells grown in 24-well plates and transfected as described with a vector coding for the human ACE-mCherry fusion protein, an active enzyme ([Charest-Morin an ...

[4] = test system: GFP-tagged rabbit B2R (B2R-GFP); assay: B2R-GFP endocytosis and recycling, epifluorescence microscopy, HEK 293 cells; type: cell-based; conditions: 30 min vs 3 h of stimulation
[5] = test system: anesthetized rats; design: method as in 2 sources, one per row (each row's own in cited_ref): ref Jean et al., 2016; Charest-Morin et al., 2017 ||| ref Jean et al., 2016; conditions: intravenous boluses; ref Jean et al., 2016; Charest-Morin et al., 2017; cited from earlier work
[6] = molecular target: T1, endogenous B2R of the human isolated umbilical vein (human (endogenous in umbilical vein), UniProt P30411 1-391); assay: cell-based or functional assay
T1 sequence (looked up): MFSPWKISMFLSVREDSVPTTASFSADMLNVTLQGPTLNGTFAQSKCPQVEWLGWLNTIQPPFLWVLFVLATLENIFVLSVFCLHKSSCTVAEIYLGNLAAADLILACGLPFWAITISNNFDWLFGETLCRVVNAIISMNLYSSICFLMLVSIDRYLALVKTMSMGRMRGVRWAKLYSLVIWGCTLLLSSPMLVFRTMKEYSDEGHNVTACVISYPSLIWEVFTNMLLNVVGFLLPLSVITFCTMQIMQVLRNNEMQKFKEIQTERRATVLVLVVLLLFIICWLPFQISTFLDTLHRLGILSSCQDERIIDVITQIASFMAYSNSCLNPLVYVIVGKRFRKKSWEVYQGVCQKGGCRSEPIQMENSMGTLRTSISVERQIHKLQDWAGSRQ

[7] = molecular target: T2, myc-tagged rat B2R construction (rat, UniProt P25023 1-396); assay: radioligand binding; competition of the binding of 3 nM [^3H]BK to adherent intact HEK 293 cells stably expressing myc-tagged rat B2R by unlabeled peptides; 0°C; peptidase inhibitors including captopril and PMSF; one-site competition fit; conditions: one partner purified
T2 construct: bradykinin B2 receptor, rat; also called rat myc-B2R; rat recombinant myc-B2R; source: HEK 293 cells stably expressing the construction, adherent intact cells
T2 sequence (looked up): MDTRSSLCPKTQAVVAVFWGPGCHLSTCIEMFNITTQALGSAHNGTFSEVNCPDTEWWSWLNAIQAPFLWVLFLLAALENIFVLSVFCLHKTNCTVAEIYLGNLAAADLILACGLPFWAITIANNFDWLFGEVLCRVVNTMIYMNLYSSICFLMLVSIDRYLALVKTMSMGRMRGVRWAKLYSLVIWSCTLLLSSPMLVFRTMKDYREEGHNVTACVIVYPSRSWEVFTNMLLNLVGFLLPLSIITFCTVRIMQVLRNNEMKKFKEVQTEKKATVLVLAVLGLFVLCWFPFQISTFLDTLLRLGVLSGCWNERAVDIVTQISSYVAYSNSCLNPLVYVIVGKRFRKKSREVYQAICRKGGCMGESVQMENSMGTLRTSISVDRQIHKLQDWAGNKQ

C[C@H](N[C@@H](CCc1ccccc1)C(=O)O)C(=O)N1CCC[C@H]1C(=O)O [Enalaprilat, enalaprilat, reference compound]
hydrolysis of ACE substrate by ACE-expressing cells treated with inhibitor, in words [1]: did not catalyze the reaction
Mean arterial blood pressure, basal after pre-treatment [2]: 89.8 ± 4.1
Heart rate, basal after pre-treatment [2]: 412 ± 11^∗∗

N=C(N)NCCSCC(CS)C(=O)O (stereo not shown) [Plummer’s inhibitor, mercaptomethyl-3-guanidinoethylthiopropanoic acid, reference compound]
Mean arterial blood pressure, basal after pre-treatment [2]: 90.3 ± 3.6
Heart rate, basal after pre-treatment [2]: 407 ± 10^∗∗

Abz-Phe-Arg-Lys(Dnp)-Pro-OH [internally quenched fluorogenic ACE substrate]
affinity for the two catalytic sites of ACE, in words [3]: approximately equal low micromolar affinity

D-Arg-[Hyp3,Thi5,D-Tic7,Oic8]bradykinin [Icatibant, reference compound]
Mean arterial blood pressure, basal after pre-treatment [2]: 93.7 ± 3.3
Heart rate, basal after pre-treatment [2]: 396 ± 10^∗
inhibition of hypotensive effects of r-BK and r-BK-RR, in words ([2]; icatibant i.v. pretreatment, r-BK or r-BK-RR 1.6 μg/kg i.v.): their effects were inhibited by icatibant

D-Arg-[Hyp^3, Igl^5, Oic^7, Igl^8]-BK [B-9972, reference compound]
persistence of B2R-GFP endocytosis, in words [4]: persistent morphologic response; also recorded: prolonged endocytosis of B2R-GFP
duration of action vs BK in vivo, in words [5]: not remarkably more longer acting than BK in vivo

B1: D-Arg^0-BK (peptide)
peptide: [dR]RPPGFSPFR
notes: D-Arg^0, N-terminal extension (a D-residue); bradykinin, whole nonapeptide; also called r-BK; D-Arg^0-bradykinin; source: synthetic peptide (CanPeptide, Inc., solid-phase, ≥98.3% pure)
contractile EC50, human isolated umbilical vein, control [6]: 62.4 nM
contractile EC50, human isolated umbilical vein, with Plummer’s inhibitor 1 μM [6]: 68.4 nM
contractile EC50, human isolated umbilical vein, with enalaprilat 1 μM [6]: 61.6 nM
contractile EC50, human isolated umbilical vein, with enalaprilat 1 μM + Plummer’s inhibitor 1 μM [6]: 45.1 nM
IC50 [7]: 13.3 nM

B2: D-Arg^0-BK-Arg-Arg (peptide)
peptide: [dR]RPPGFSPFRRR
notes: D-Arg^0, N-terminal extension (a D-residue); bradykinin, whole nonapeptide; Arg-Arg, C-terminal extension; also called r-BK-RR; D-Arg^0-Bradykinin-Arg-Arg; source: synthetic peptide (CanPeptide, Inc., solid-phase, ≥98.3% pure)
contractile EC50, human isolated umbilical vein, with enalaprilat 1 μM (ACE blockade) [6]: 1510 nM
contractile EC50, human isolated umbilical vein, with enalaprilat 1 μM + Plummer’s inhibitor 1 μM (ACE blockade) [6]: 1760 nM
IC50 [7]: 1050 nM
